Reference: PubChem BioAssay (NCI)
Where “and” joins values, the source holds several entries; their conditions need not be identical. Equal values may be shown once.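 48-hour exposure; five concentrations; linearly interpolated endpoints. Definition used: TGI = concentration required for complete inhibition of growth.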

Assays:
Assay in all cases: inhibition of tumour cell growth, NCI panel, 48 h
HOP-62 NSCLC = test system: HOP-62 NSCLC
RPMI-8226 leukemia = test system: RPMI-8226 leukemia
HS 578T breast = test system: HS 578T breast
SW-620 colon = test system: SW-620 colon
BT-549 breast = test system: BT-549 breast
K-562 leukemia = test system: K-562 leukemia
HCC-2998 colon = test system: HCC-2998 colon
786-0 renal = test system: 786-0 renal
ACHN renal = test system: ACHN renal

Cc1nc2sc(C(=O)c3ccc(Cl)cc3)c(N)c2c(-c2ccccc2Cl)c1C(=O)Nc1ccccc1
TGI (HOP-62 NSCLC): 37 µM
TGI (RPMI-8226 leukemia): 62.2 µM
TGI (HS 578T breast): 48.7 µM
TGI (SW-620 colon): 29.4 µM
TGI (BT-549 breast): 48 µM
TGI (K-562 leukemia): > 51.8 µM
TGI (HCC-2998 colon): 59.9 µM
TGI (786-0 renal): 27.6 µM
TGI (ACHN renal): 67.7 µM

C=C(Cl)C(Cl)(CCl)CCC(Br)C(C)(C)Br (configuration not stated)
TGI (HOP-62 NSCLC): > 10 µM
TGI (RPMI-8226 leukemia): > 10 µM
TGI (SW-620 colon): > 10 µM
TGI (BT-549 breast): > 10 µM
TGI (K-562 leukemia): > 10 µM
TGI (HCC-2998 colon): > 10 µM
TGI (786-0 renal): > 10 µM
TGI (ACHN renal): > 10 µM

COc1ccc(-c2c(-c3ccccc3)c(C)nc3nc(SC)nc(SC)c23)cc1OC
TGI (HOP-62 NSCLC): 40.5 µM
TGI (RPMI-8226 leukemia): 26.1 µM
TGI (HS 578T breast): 82.3 µM
TGI (SW-620 colon): > 100 µM
TGI (BT-549 breast): > 100 µM
TGI (K-562 leukemia): 32 µM
TGI (HCC-2998 colon): > 100 µM
TGI (ACHN renal): > 100 µM

CCN1CCC(CNC(=O)c2ccc(N)cc2)N1CC (configuration not stated)
TGI (HOP-62 NSCLC): > 100 µM
TGI (RPMI-8226 leukemia): > 100 µM
TGI (HS 578T breast): > 100 µM
TGI (SW-620 colon): > 100 µM
TGI (BT-549 breast): > 100 µM
TGI (K-562 leukemia): > 100 µM
TGI (HCC-2998 colon): > 100 µM
TGI (786-0 renal): > 100 µM
TGI (ACHN renal): > 100 µM

Nc1nc(Cl)c(Cl)c(NCC2(O)CCC2)n1
TGI (HOP-62 NSCLC): > 100 µM
TGI (RPMI-8226 leukemia): > 100 µM
TGI (HS 578T breast): > 100 µM
TGI (SW-620 colon): > 100 µM
TGI (BT-549 breast): > 100 µM
TGI (K-562 leukemia): > 100 µM
TGI (HCC-2998 colon): > 100 µM
TGI (786-0 renal): > 100 µM
TGI (ACHN renal): > 100 µM

CCC(C)C1=C(O)[N+]2([O-])Oc3ccc(-c4c(O)c(O)c(-c5ccc(OC(C)=O)cc5)c(OC(C)=O)c4OC(C)=O)cc3OC2(C(C)CC)C(=O)N1O (configuration not stated)
TGI (HOP-62 NSCLC): > 50 µM
TGI (RPMI-8226 leukemia): > 50 µM
TGI (HS 578T breast): > 50 µM
TGI (SW-620 colon): > 50 µM
TGI (BT-549 breast): > 50 µM
TGI (K-562 leukemia): 49.1 µM and > 50 µM
TGI (HCC-2998 colon): 41.5 µM
TGI (786-0 renal): > 50 µM
TGI (ACHN renal): > 50 µM

CCOC(=O)/C=C(\C(=O)OCC)n1cc(C)c(=O)n(Cc2cnnn2COCCOC(C)=O)c1=O
TGI (HOP-62 NSCLC): 55.6 µM
TGI (RPMI-8226 leukemia): 18.5 µM
TGI (HS 578T breast): 46.8 µM
TGI (SW-620 colon): 9.92 µM
TGI (BT-549 breast): 16.3 µM
TGI (K-562 leukemia): 19.2 µM
TGI (HCC-2998 colon): 30.7 µM
TGI (786-0 renal): 14.9 µM
TGI (ACHN renal): 7.46 µM

OC1COC2CC(Nc3ccccn3)OC12 (configuration not stated)
TGI (HOP-62 NSCLC): > 100 µM
TGI (RPMI-8226 leukemia): > 100 µM
TGI (HS 578T breast): > 100 µM
TGI (SW-620 colon): > 100 µM
TGI (BT-549 breast): > 100 µM
TGI (K-562 leukemia): > 100 µM
TGI (HCC-2998 colon): > 100 µM
TGI (786-0 renal): > 100 µM
TGI (ACHN renal): > 100 µM

COc1cc(-c2c3c(cc4c2OCO4)[C@@H](Nc2ccc(-c4ccc(-c5ccc(N[C@@H]6c7cc8c(cc7C(c7cc(OC)c(O)c(OC)c7)[C@H]7C(=O)OC[C@H]67)OCO8)cc5)cc4)cc2)[C@H]2COC(=O)[C@@H]2C3)cc(OC)c1O (some centres not stated)
TGI (HOP-62 NSCLC): 8.81 µM
TGI (HS 578T breast): > 100 µM
TGI (SW-620 colon): 10.8 µM
TGI (BT-549 breast): 6.76 µM
TGI (786-0 renal): 6.22 µM
TGI (ACHN renal): 11.3 µM

CC(C)=CC(=O)c1[nH]c2ccccc2c1CC(=O)NCCc1cncn1C
TGI (HS 578T breast): > 100 µM
TGI (SW-620 colon): > 100 µM
TGI (BT-549 breast): > 100 µM
TGI (K-562 leukemia): > 100 µM
TGI (HCC-2998 colon): 81.5 µM
TGI (786-0 renal): > 100 µM
TGI (ACHN renal): > 100 µM

COc1ccccc1C1(c2c(OC)c(=O)c2=O)SCCCS1
TGI (HOP-62 NSCLC): > 100 µM
TGI (RPMI-8226 leukemia): > 100 µM
TGI (HS 578T breast): > 100 µM
TGI (SW-620 colon): > 100 µM
TGI (BT-549 breast): > 100 µM
TGI (K-562 leukemia): > 100 µM
TGI (HCC-2998 colon): > 100 µM
TGI (786-0 renal): > 100 µM
TGI (ACHN renal): > 100 µM
